Measurements published in patent publication US12486267B2, “Imidazo[1,2-A]pyridine and [1,2,4]triazolo[1,5-A]pyridine derivatives as TLR9 inhibitors for the treatment of fibrosis” (BRISTOL-MYERS SQUIBB COMPANY, priority 2020, dated 2025).

What was measured:
Assay type in all cases: cell-based
[1] = biological target: T1, human TLR8 (Homo sapiens, UniProt Q9NR97); test: TLR8 inhibition reporter assay (HEK-Blue cells, SEAP reporter); details: HEK-Blue cells overexpressing human TLR8; stimulated with R848 15.9 μM; 22 hour incubation; SEAP readout
T1 sequence (Q9NR97 27-1041): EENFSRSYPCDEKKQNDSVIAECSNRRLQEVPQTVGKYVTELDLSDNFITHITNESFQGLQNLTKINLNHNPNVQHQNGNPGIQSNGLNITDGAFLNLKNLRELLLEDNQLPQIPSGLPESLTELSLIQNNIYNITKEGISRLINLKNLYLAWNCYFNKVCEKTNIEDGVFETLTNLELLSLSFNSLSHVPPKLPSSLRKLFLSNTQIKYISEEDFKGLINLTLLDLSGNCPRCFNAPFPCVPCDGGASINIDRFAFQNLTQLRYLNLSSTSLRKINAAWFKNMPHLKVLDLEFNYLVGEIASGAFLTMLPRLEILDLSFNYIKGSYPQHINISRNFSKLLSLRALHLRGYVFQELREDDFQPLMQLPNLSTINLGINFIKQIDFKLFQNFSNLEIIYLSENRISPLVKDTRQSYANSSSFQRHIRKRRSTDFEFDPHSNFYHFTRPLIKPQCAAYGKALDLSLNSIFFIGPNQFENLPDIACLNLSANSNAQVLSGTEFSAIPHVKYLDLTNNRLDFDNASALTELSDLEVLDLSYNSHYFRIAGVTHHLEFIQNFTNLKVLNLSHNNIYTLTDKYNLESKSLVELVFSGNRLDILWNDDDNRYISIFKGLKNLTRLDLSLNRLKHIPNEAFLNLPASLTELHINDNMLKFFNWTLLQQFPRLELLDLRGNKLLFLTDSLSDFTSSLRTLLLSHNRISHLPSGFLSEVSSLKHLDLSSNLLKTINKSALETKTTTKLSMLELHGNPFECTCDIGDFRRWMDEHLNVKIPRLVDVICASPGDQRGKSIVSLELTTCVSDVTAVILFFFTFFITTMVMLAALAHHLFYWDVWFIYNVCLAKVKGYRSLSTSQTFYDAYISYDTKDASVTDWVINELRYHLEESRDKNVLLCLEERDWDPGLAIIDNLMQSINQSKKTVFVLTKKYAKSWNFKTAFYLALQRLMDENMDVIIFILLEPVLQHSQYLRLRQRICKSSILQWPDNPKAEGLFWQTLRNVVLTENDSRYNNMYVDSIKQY
Summary of the method: (§1)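 HEK-Blue cells with NF-κB/AP-1-driven SEAP pre-treated 30 min with compound (0.05 nM–50 μM), then stimulated with gardiquimod 7.5 μM (TLR7), R848 15.9 μM (TLR8) or ODN2006 5 nM (TLR9). SEAP detected after 22 h at 37 °C; percent inhibition relative to agonist-plus-DMSO and known-inhibitor wells.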

[2] = biological target: T2, human TLR9 (Homo sapiens, UniProt Q9NR96); test: TLR9 inhibition reporter assay (HEK-Blue cells, SEAP reporter); details: HEK-Blue cells overexpressing human TLR9; stimulated with ODN2006 5 nM; 22 hour incubation; SEAP readout
T2 sequence (Q9NR96 26-1032): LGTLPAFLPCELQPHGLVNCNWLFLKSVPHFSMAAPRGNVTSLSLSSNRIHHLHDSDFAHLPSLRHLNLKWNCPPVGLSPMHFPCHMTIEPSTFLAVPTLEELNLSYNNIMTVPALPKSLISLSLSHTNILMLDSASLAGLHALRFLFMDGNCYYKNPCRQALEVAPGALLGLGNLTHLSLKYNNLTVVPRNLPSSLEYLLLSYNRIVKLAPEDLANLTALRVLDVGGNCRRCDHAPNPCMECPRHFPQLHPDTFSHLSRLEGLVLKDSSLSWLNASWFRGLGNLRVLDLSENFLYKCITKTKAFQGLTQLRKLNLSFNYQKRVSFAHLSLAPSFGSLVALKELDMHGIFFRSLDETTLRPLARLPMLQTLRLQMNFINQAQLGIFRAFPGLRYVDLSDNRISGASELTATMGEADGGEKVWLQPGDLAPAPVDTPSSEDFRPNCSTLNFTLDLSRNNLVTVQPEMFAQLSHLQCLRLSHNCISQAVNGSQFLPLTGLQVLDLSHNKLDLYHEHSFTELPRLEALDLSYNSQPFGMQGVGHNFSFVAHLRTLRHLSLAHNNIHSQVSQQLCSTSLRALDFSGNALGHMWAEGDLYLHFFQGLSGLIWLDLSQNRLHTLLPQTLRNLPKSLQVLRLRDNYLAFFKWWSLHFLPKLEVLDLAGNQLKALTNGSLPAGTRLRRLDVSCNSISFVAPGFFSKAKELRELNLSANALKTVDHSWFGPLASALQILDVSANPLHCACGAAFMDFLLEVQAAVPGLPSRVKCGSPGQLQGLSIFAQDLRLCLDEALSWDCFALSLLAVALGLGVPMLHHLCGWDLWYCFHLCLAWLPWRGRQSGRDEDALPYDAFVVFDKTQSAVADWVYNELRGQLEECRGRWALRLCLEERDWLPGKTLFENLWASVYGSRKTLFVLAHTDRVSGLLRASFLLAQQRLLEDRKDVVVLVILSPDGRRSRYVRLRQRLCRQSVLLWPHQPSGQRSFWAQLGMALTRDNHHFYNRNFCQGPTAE
Summary of the method: as §1

[3] = biological target: T3, human TLR7 (Homo sapiens, UniProt Q9NYK1); test: TLR7 inhibition reporter assay (HEK-Blue cells, SEAP reporter); details: HEK-Blue cells overexpressing human TLR7; stimulated with gardiquimod 7.5 μM; 22 hour incubation; SEAP readout
T3 sequence (Q9NYK1 27-1049): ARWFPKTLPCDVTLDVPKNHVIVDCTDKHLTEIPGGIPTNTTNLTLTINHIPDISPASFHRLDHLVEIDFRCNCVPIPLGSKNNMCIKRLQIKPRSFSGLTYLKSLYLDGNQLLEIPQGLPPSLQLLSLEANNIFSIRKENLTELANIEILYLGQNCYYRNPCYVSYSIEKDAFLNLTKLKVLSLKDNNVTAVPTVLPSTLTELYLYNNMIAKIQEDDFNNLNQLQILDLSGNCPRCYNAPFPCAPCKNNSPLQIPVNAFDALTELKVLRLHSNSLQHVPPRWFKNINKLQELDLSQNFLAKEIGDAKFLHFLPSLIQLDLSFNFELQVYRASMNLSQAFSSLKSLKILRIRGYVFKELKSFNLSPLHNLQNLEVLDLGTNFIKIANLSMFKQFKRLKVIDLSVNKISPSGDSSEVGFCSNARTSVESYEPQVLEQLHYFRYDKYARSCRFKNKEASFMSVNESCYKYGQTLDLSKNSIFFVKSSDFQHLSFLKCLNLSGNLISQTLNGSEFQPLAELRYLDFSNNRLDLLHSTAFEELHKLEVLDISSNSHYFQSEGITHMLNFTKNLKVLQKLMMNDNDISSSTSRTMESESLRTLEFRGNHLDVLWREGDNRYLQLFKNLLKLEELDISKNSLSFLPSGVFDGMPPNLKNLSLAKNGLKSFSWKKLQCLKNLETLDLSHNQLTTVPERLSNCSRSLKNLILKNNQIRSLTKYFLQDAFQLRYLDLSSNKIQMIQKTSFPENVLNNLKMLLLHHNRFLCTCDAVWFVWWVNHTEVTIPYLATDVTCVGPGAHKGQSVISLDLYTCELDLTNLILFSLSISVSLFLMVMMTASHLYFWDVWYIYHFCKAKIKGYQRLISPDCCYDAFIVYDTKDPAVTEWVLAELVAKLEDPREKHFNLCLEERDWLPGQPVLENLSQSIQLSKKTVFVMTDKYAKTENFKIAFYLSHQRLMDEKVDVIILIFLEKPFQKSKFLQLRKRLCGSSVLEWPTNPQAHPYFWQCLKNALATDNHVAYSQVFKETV
Summary of the method: as §1

SMILES	IC50 [1] [nM]	IC50 [2] [nM]	IC50 [3] [nM]
CS(=O)(=O)c1ccc(-c2cn3cc(C4CCN(C5CC6CCC(C5)N6C5CCC5)CC4)cc(F)c3n2)cc1 (single isomer, unassigned) [Example 117, 6-(1-(8-cyclobutyl-8-azabicyclo[3.2.1]octan-3-yl)piperidin-4-yl)-8-fluoro-2-(4-(methylsulfonyl)phenyl)imidazo[1,2-a]pyridine]	20000	22	1500
CS(=O)(=O)c1ccc(-c2cn3cc(C4CCN(C5CC6CCC(C5)N6C5CCC5)CC4)cc(F)c3n2)cc1 (single isomer, unassigned) [Example 118, 6-(1-(8-cyclobutyl-8-azabicyclo[3.2.1]octan-3-yl)piperidin-4-yl)-8-fluoro-2-(4-(methylsulfonyl)phenyl)imidazo[1,2-a]pyridine]	17100	21	1100
CS(=O)(=O)c1ccc(-c2cn3cc(C4CCN(C5CC6CCC(C5)N6C5COC5)CC4)cc(F)c3n2)cc1 (single isomer, unassigned) [Example 119, 8-fluoro-2-(4-(methylsulfonyl)phenyl)-6-(1-(8-(oxetan-3-yl)-8-azabicyclo[3.2.1]octan-3-yl)piperidin-4-yl)imidazo[1,2-a]pyridine]	> 50000	30	10600
CS(=O)(=O)c1ccc(-c2cn3cc(C4CCN(C5CC6CCC(C5)N6C5COC5)CC4)cc(F)c3n2)cc1 (single isomer, unassigned) [Example 120, 8-fluoro-2-(4-(methylsulfonyl)phenyl)-6-(1-(8-(oxetan-3-yl)-8-azabicyclo[3.2.1]octan-3-yl)piperidin-4-yl)imidazo[1,2-a]pyridine]	> 50000	709	16700
CS(=O)(=O)c1ccc(-c2cn3cc(C4CCN(C5CC6CCC(C5)N6C5CCOCC5)CC4)cc(F)c3n2)cc1 (single isomer, unassigned) [Example 121, 8-fluoro-2-(4-(methylsulfonyl)phenyl)-6-(1-(8-(tetrahydro-2H-pyran-4-yl)-8-azabicyclo[3.2.1]octan-3-yl)piperidin-4-yl) imidazo[1,2-a]pyridine]	> 50000	11	3400
CS(=O)(=O)c1ccc(-c2cn3cc(C4CCN(C5CC6CCC(C5)N6C5CCOCC5)CC4)cc(F)c3n2)cc1 (single isomer, unassigned) [Example 122, 8-fluoro-2-(4-(methylsulfonyl)phenyl)-6-(1-(8-(tetrahydro-2H-pyran-4-yl)-8-azabicyclo[3.2.1]octan-3-yl)piperidin-4-yl) imidazo[1,2-a]pyridine]	27000	7.8	1300
CC(C)CN1CCCC(N2CCC(c3cc(F)c4nc(-c5ccc(S(C)(=O)=O)cc5)cn4c3)CC2)CC1 (single isomer, unassigned) [Example 125, 8-fluoro-6-(1-(1-isobutylazepan-4-yl)piperidin-4-yl)-2-(4-(methylsulfonyl)phenyl) imidazo[1,2-a]pyridine]	47400	20	12700
CC(C)CN1CCCC(N2CCC(c3cc(F)c4nc(-c5ccc(S(C)(=O)=O)cc5)cn4c3)CC2)CC1 (single isomer, unassigned) [Example 126, 8-fluoro-6-(1-(1-isobutylazepan-4-yl)piperidin-4-yl)-2-(4-(methylsulfonyl)phenyl) imidazo[1,2-a]pyridine]	46700	7.8	7400
CS(=O)(=O)c1ccc(-c2cn3cc(C4CCN(C5CCCN(CC6CC6)CC5)CC4)cc(F)c3n2)cc1 (single isomer, unassigned) [Example 127, 6-(1-(1-(cyclopropylmethyl)azepan-4-yl)piperidin-4-yl)-8-fluoro-2-(4-(methylsulfonyl)phenyl)imidazo[1,2-a]pyridine]	36000	9.7	1600
CS(=O)(=O)c1ccc(-c2cn3cc(C4CCN(C5CCCN(CC6CC6)CC5)CC4)cc(F)c3n2)cc1 (single isomer, unassigned) [Example 128, 6-(1-(1-(cyclopropylmethyl)azepan-4-yl)piperidin-4-yl)-8-fluoro-2-(4-(methylsulfonyl)phenyl)imidazo[1,2-a]pyridine]	> 50000	8.4	2400
CS(=O)(=O)c1ccc(-c2cn3cc(C4CCN(C5CCCN(C6CCOCC6)CC5)CC4)cc(F)c3n2)cc1 (single isomer, unassigned) [Example 129, 8-fluoro-2-(4-(methylsulfonyl)phenyl)-6-(1-(1-(tetrahydro-2H-pyran-4-yl)azepan-4-yl)piperidin-4-yl)imidazo[1,2-a]pyridine]	> 50000	20	> 50000
